From publication PMC12731536, “Sc(III) Complexes of Pyclen Derivative Ligands as Probes for Hypoxia: Synthesis, Chemical Characterization, ^44Sc‐Radiolabeling, and Preclinical Assessment” (Chemistry (Weinheim an Der Bergstrasse, Germany), 2025)
Read-outs that look alike come from different tables or passages of the source.

Columns and labels:
[1] = set-up: method as in PMID 24838869; conditions: dissociation of [Sc(DOTA)]; cited from earlier work
[2] = cited from earlier work
[3] = Fluoride exchange kinetics, 19F NMR selective magnetization transfer; format: physicochemical; conditions: complex 5 mM, cF = 10 mM, 14% uncertainty; for k obs ^AB (fluoride exchange, complex site A to free F^− site B): 298 K
From the text: Considering ^18F‐labeling and PET application of the [Sc(L)(F)]‐type mixed complexes, one has to check the inertness of the mixed complex against F‐exchange:
(7) [Sc(PC2AM^nBu)F]+∗F^−⇌[Sc(PC2AM^nBu)∗F]+F^− where * is used to indicate typographically the exchanging anion.
The ^19F NMR signal of the mixed complex is somewhat broadened (ν ½ = 150 Hz) due to the relaxation effect of the quadrupole ^45Sc (I = 7/2) nuclei, while the free fluoride is narrow (ν ½ = 4.5 Hz), indicating the absence of chemical exchange on the T 2‐time scale (Figure S24). […] (site A) and free F^− (site B) with k obs ^AB value of 0.6 s^−1 (14% uncertainty), indicating remarkable inertness of the monodentate fluoride (Figure S25). Very recently, 3–4 orders of magnitude larger fluoride exchange rate constants have been published for two Y(III) complexes formed with open‐chain ligands, [Y(EGTA)(F)]^2− and [Y(OBETA)(H2O)(F)]^2−.^[ [56] ^] […] At the same time, the k obs value obtained for the [Sc(OPC2A)(F)] complex (k obs = 16.5 s^−1) is lower by an order of magnitude than that of [Yb(DTMA)(F)]^2+ [ [45] ^] which is likely to be rationalized by the more rigid environment around the M(III)‐F entity.
Figure S25. Selective magnetization transfer (MT) experiment (intensity vs. delay time) curves for [Sc(PC2AAM^nBu)(F)] (c[Sc(PC2AAMnBu)(F)] = 5 mM, cF = 10 mM, pH = 5.50, 298 K). The symbols show the measured intensities: red triangle [Sc(PC2AAM^nBu)(F)] (site A); blue square, free F^- (site B), the curves represent the fitted data (k^obsBA = 1.2 s^-1 (14% uncertainty), k^obsAB = 0.60 s^-1 (14% uncertainty), T1,A= 0.211 s; T1,B = 1.28 s (fixed)).

[4] = Fluoride binding of [Sc(PC2AM^nBu)]^+ (ternary complex stability), 19F NMR titration; format: physicochemical; conditions: for log K ScLF: stability constant of the ternary fluoride complex, 19F NMR, pH = 5.2, I = 0.15 M NaCl, 25 °C; for K= [Sc(L)F]/[Sc(L)]*[F^-] / log K: titration point: complex 0.0050 M, pH 5.20, I = 0.15 M NaCl, 298 K
From the text: Sc(III) is a typical “hard” cation, forming very stable complexes with fluoride anion.^[ [51], [52] ^] […] The formation of the ternary [Sc(PC2AM^nBu)(F)] complex can be followed by […], as two sets of signals (Δδ ∼ 20 Hz) indicate a slow exchange regime on the […] time scale (Figure S16). Measuring the intensities of the free and bound fluoride signals, the stability constant (Eqn. 6) of the [Sc(PC2AM^nBu)(F)] complex (Eqn. 5) can be calculated (Table S1).
(5) [Sc(PC2AM^nBu)]^++F^−⇌[Sc(PC2AM^nBu)(F)] (6) KScLF=ScPC2AM^nBuF/[ScPC2AM^nBu^+]F^−
Table S1. Summary of data used for the calculation of the stability constant, log K[Sc(PC2AM^nBu)(F)] by titration of 0.005M [Sc(PC2AM^nBu)]^+ parent complex with different amounts of F^- (0.005 - 0.01 M concentration range) followed by 376.4 MHz ^19F NMR (I = 0.15 M NaCl, c Sc(PC2AM^nBu) = 5 mM, pH=5.20, T= 298 K).

Compound: O=C(O)CN1CCN(CC(=O)O)CCN(CC(=O)O)CCN(CC(=O)O)CC1 [DOTA]
- k 0 (spontaneous dissociation) [1]: 6e-06 s⁻¹
- k 1 (acid‐assisted dissociation) [1]: 4.3e-06 M⁻¹ s⁻¹

Compound: O=C([O-])CN1CCOCCN(CC(=O)[O-])Cc2cccc(n2)C1.[F-].[Sc+3] [[Sc(OPC2A)(F)]]
- k obs (fluoride exchange) ([2]; literature value): 16.5 s⁻¹

Compound: CCCCNC(=O)CN1CCN(CC(=O)[O-])Cc2cccc(n2)CN(CC(=O)[O-])CC1.[F-].[Sc+3] [[Sc(PC2AM^nBu)(F)]]
- k obs ^AB (fluoride exchange, complex site A to free F^− site B) [3]: 0.6 s⁻¹
- k obs ^AB (fluoride exchange, complex site A to free F^− site B) ([3]; listed as [Sc(PC2AAM^nBu)(F)]): 0.60 s⁻¹
- k^obsBA (fluoride exchange, free F^- site B to complex site A) ([3]; pH = 5.50, 298 K): 1.2 s⁻¹
- log K ScLF [4]: 2.5(2)
- log K ScLF ([4]; listed as [Sc(PC2AMnBu)(F)]): 2.5
- K= [Sc(L)F]/[Sc(L)]*[F^-] ([4]; F^- 0.0050 M): 356.65
- log K ([4]; F^- 0.0050 M): 2.55
- K= [Sc(L)F]/[Sc(L)]*[F^-] ([4]; F^- 0.0060 M): 508.89
- log K ([4]; F^- 0.0060 M): 2.71
- K= [Sc(L)F]/[Sc(L)]*[F^-] ([4]; F^- 0.0070 M): 342.86
- log K ([4]; F^- 0.0070 M): 2.54
- K= [Sc(L)F]/[Sc(L)]*[F^-] ([4]; F^- 0.0080 M): 222.09
- log K ([4]; F^- 0.0080 M): 2.35
- K= [Sc(L)F]/[Sc(L)]*[F^-] ([4]; F^- 0.0100 M): 150.79
- log K ([4]; F^- 0.0100 M): 2.18

Compound: CNC(=O)CN1CCN(CC(=O)NC)CCN(CC(=O)NC)CCN(CC(=O)NC)CC1.[F-].[Yb+3] [[Yb(DTMA)(F)]^2+]
- k obs (fluoride exchange) ([2]; literature value): 216 s⁻¹

Compound: F.O=C([O-])CN(CCN(CC(=O)[O-])CC(=O)O)CC(=O)[O-].[Al+3] [[Al(EDTA)(F)]^2−]
- k obs (fluoride exchange) ([2]; estimate, no magnetization effect in MT experiment): greater than or equal to 0.2 s^−1
